Data published in patent US9221833B2, “Antiviral compounds” (GILEAD PHARMASSET LLC, priority 2011, dated 2015).
Where two headings read alike, the source gives them in different places.

Assays:
Assay type in all cases: cell-based, HCV
[1] = system: genotype 2a JFH-1 replicon (L31 present in NS5A); assay: microbe, parasite or virus in culture; settings: Hepatitis C virus, read-out: 2a JFH
[2] = system: genotype 3a S52 strain NS5A gene; assay: Replicon assay, NS5A chimeric 1b Con1 replicon with 3a NS5A, transiently transfected Huh-Lunet cells; settings: Hepatitis C virus
Procedure: (§1) Evaluation of cell-based anti-HCV activity: Antiviral potency (EC50) was determined using a Renilla luciferase (RLuc)-based HCV replicon reporter assay. […] To perform the assay for genotype 2a (with M31 present in NS5A) or 2b, NS5A chimeric genotype 2a JFH-1 replicons that encodes a RLuc-Neo reporter and either genotype 2a J6 strain NS5A gene or genotype 2b MD2b-1 strain NS5A gene (both with M31 present) respectively, were either transiently transfected (t) into Huh-Lunet cells or were established as stably replicating replicon cells (s) is provided. Either cells were dispensed into 384-well plates for EC50 assays. To perform the assay for genotype 3 and 4, NS5A chimeric genotype 1b Con1 replicons that encodes a Pi-RLuc reporter and either genotype 3a S52 strain NS5A gene or genotype 4a ED43 strain NS5A gene respectively, were transiently transfected (t) into Huh-Lunet cells, which were subsequently dispensed into 384-well plates. Compounds were dissolved in DMSO at a concentration of 10 mM and diluted in DMSO either manually or using an automated pipeting instrument. Serially 3-fold diluted compounds were either manually mixed with cell culture media and added to the seeded cells or directly added to the cells using an automated instrument. […] 72 hours later, cells were lysed and Renilla luciferase activity quantified as recommended by the manufacturer (Promega-Madison, Wis.). Non-linear regression was performed to calculate EC50 values.

[3] = system: genotype 2b MD2b-1 strain NS5A gene (M31 present); assay: microbe, parasite or virus in culture; settings: Hepatitis C virus
Procedure: as §1

[4] = system: genotype 2a JFH-1 replicon (L31 present in NS5A); assay: microbe, parasite or virus in culture; settings: Hepatitis C virus, read-out: 2a JFH (nM)
Procedure: as §1

[5] = system: genotype 1a H77 replicon; assay: microbe, parasite or virus in culture; settings: Hepatitis C virus
Procedure: as §1

[6] = system: genotype 2a J6 strain NS5A gene (M31 present); assay: Replicon assay, NS5A chimeric 2a JFH-1 replicon with 2a J6 NS5A, transient (t) or stable (s), Huh-Lunet cells; settings: Hepatitis C virus
Procedure: as §1

[7] = system: Q30R in genotype 1a NS5A; assay: Antiviral potency against resistance mutant, 1a Pi-Rluc replicon in Huh-7-derived cured-51 cells; settings: Hepatitis C virus
Procedure: as §1
To determine the antiviral potency (EC50) against resistance mutants, resistance mutations, including M28T, Q30R, Q30H, L31M, and Y93C in genotype 1a NS5A and Y93H in genotype 1b NS5A, were introduced individually into either 1a Pi-Rluc or 1b Pi-Rluc replicons by site directed mutagenesis. Replicon RNA of each resistant mutant was transiently transfected into Huh-7-derived cured-51 cells and antiviral potency was determined on these transfected cells as described above.

[8] = system: genotype 4a ED43 strain NS5A gene; assay: Replicon assay, NS5A chimeric 1b Con1 replicon with 4a NS5A, transiently transfected Huh-Lunet cells; settings: Hepatitis C virus
Procedure: as §1, with “[…],” for “were transiently transfected (t) into Huh-Lunet cells,”

| SMILES | EC50 [1] | EC50 ([2]; read-out: 3a) | EC50 ([3]; read-out: 2b) | EC50 ([3]; read-out: 2b (s) (nM)) | EC50 [4] | EC50 ([5]; read-out: 1a) | EC50 ([6]; read-out: 2a J6) | EC50 ([7]; read-out: 1a Q30R) | EC50 ([2]; read-out: 3a (nM)) | EC50 ([8]; read-out: 4a) | EC50 ([8]; read-out: 4a (s) (nM)) | EC50 ([3]; read-out: 2b (t) (nM)) | EC50 ([5]; read-out: 1a (nM)) | EC50 ([6]; read-out: 2a J6 (t) (nM)) | EC50 ([7]; read-out: 1a Q30R (nM)) |
| --- | --- | --- | --- | --- | --- | --- | --- | --- | --- | --- | --- | --- | --- | --- | --- |
| COC[C@H]1CC(c2ncc(-c3ccc4c(c3)COc3cc5c(ccc6nc([C@@H]7CC[C@H](C)N7C(=O)[C@@H](NC(=O)OC)C(C)C)[nH]c65)cc3-4)[nH]2)N(C(=O)[C@@H](NC(=O)OC)C(C)OC)C1 (stereo in doubt) [Example QA, Methyl {(2S)-1-[(2S,5S)-2-(9-{2-[(2S,4S)-1-{(2S,3S)-3-methoxy-2-[(methoxycarbonyl)amino]butanoyl}-4-(methoxymethyl)pyrrolidin-2-yl]-1H-imidazol-5-yl}-1,11-dihydroisochromeno[4′,3′:6,7]naphtho[1,2-d]imidazol-2-yl)-5-methylpyrrolidin-1-yl]-3-methyl-1-oxobutan-2-yl}carbamate] | < 1 nM | < 1 nM | < 1 nM | 0.04 nM | 0.007 nM | < 1 nM | < 1 nM | < 1 nM | – | – | – | – | – | – | – |
| CCC(C)[C@H](NC(=O)OC)C(=O)N1C[C@@H](C)CC1c1ncc(-c2ccc3c(c2)COc2cc4c(ccc5nc([C@@H]6C[C@H](COC)CN6C(=O)[C@@H](NC(=O)OC)C(C)C)[nH]c54)cc2-3)[nH]1 (stereo in doubt) [Example QC, Methyl {(2S)-1-[(2S,4S)-2-(9-{2-[(2S,4S)-1-{(2S,3R)-2-[(methoxycarbonyl)amino]-3-methylpentanoyl}-4-methylpyrrolidin-2-yl]-1H-imidazol-5-yl}-1,11-dihydroisochromeno[4′,3′:6,7]naphtho[1,2-d]imidazol-2-yl)-4-(methoxymethyl)pyrrolidin-1-yl]-3-methyl-1-oxobutan-2-yl}carbamate] | < 1 nM | – | < 1 nM | – | 0.008 nM | < 1 nM | < 1 nM | – | – | – | – | – | – | – | – |
| COC(=O)N[C@H](C(=O)N1CCC[C@H]1c1nc2c(ccc3cc4c(cc32)OCc2cc(-c3cnc([C@@H]5CCCN5C(=O)[C@H](NC(=O)OC)c5ccccc5)[nH]3)ccc2-4)[nH]1)C(C)C [Example MD] | < 1 nM | < 1 nM | < 1 nM | – | 0.006 nM | < 1 nM | < 1 nM | < 1 nM | 0.006 nM | < 1 nM | – | – | – | – | – |
| COC(=O)N[C@H](C(=O)N1CCC[C@H]1c1nc2c([nH]1)CCc1cc3c(cc1-2)OCc1cc(-c2cnc([C@@H]4CCCN4C(=O)[C@H](NC(=O)OC)c4ccccc4)[nH]2)ccc1-3)C(C)C [Example MF, methyl [1-(2-{5-[2-(1-{[(methoxycarbonyl)amino]-3-methyl-1-oxobutan-2-yl}pyrrolidin-2-yl)-1,4,5,11-tetrahydroisochromeno[4′,3′:6,7]naphtho[1,2-d]imidazol-9-yl]-1H-imidazol-2-yl}pyrrolidin-1-yl)-phenyl-1-oxoacet-2-yl]carbamate] | < 1 nM | < 1 nM | < 1 nM | – | – | < 1 nM | < 1 nM | < 1 nM | – | < 1 nM | – | – | – | – | – |
| COC(=O)N[C@H](C(=O)N1CCC[C@H]1c1ncc(-c2ccc3c(c2)COc2cc4c(cc2-3)CCc2[nH]c([C@@H]3CCCN3C(=O)[C@H](NC(=O)OC)c3ccccc3)nc2-4)[nH]1)C(C)C [Example MG] | < 1 nM | < 1 nM | < 1 nM | 0.07 nM | – | < 1 nM | < 1 nM | < 1 nM | 0.01 nM | < 1 nM | 0.08 nM | – | – | – | – |
| COC[C@H]1C[C@@H](c2nc3ccc4cc5c(cc4c3[nH]2)OCc2cc(-c3cnc([C@@H]4CCCN4C(=O)[C@H](NC(=O)OC)c4ccccc4)[nH]3)ccc2-5)N(C(=O)[C@@H](NC(=O)OC)C(C)OC)C1 (stereo partly drawn) [Example OU, Methyl {(1R)-2-[(2S)-2-(5-{2-[(2S,4S)-1-{(2S)-2-[(methoxycarbonyl)amino]-3-methoxybutanoyl}-4-(methoxymethyl)pyrrolidin-2-yl]-1,11-dihydroisochromeno[4′,3′:6,7]naphtho[1,2-d]imidazol-9-yl}-1H-imidazol-2-yl)pyrrolidin-1-yl]-2-oxo-1-phenylethyl}carbamate] | < 1 nM | – | < 1 nM | – | – | < 1 nM | – | – | – | – | – | – | – | – | – |
| COC[C@H]1C[C@@H](c2ncc(-c3ccc4c(c3)COc3cc5c(ccc6nc([C@@H]7CCCN7C(=O)[C@H](NC(=O)OC)c7ccccc7)[nH]c65)cc3-4)[nH]2)N(C(=O)[C@@H](NC(=O)OC)C(C)C)C1 [Example PH, methyl {(2S)-1-[(2S,4S)-2-(5-{2-[(2S)-1-{(2R)-2-[(methoxycarbonyl)amino]-2-phenylacetyl}pyrrolidin-2-yl]-1,11-dihydroisochromeno[4′,3′:6,7]naphtho[1,2-d]imidazol-9-yl}-1H-imidazol-2-yl)-4-(methoxymethyl)pyrrolidin-1-yl]-3-methyl-1-oxobutan-2-yl}carbamate] | < 1 nM | < 1 nM | < 1 nM | – | 0.014 nM | < 1 nM | < 1 nM | < 1 nM | 0.029 nM | – | – | 0.042 nM | 0.024 nM | 0.055 nM | 0.051 nM |
| CC[C@@H](C)[C@H](NC(=O)OC)C(=O)N1C[C@@H](C)C[C@H]1c1ncc(-c2ccc3c(c2)COc2cc4c(ccc5nc([C@@H]6C[C@H](COC)CN6C(=O)[C@H](NC(=O)OC)c6ccccc6)[nH]c54)cc2-3)[nH]1 [Example QB, Methyl {(1R)-2-[(2S,4S)-2-(9-{2-[(2S,4S)-1-{(2S,3R)-2-[(methoxycarbonyl)amino]-3-methylpentanoyl}-4-methylpyrrolidin-2-yl]-1H-imidazol-5-yl}-1,11-dihydroisochromeno[4′,3′:6,7]naphtho[1,2-d]imidazol-2-yl)-4-(methoxymethyl)pyrrolidin-1-yl]-2-oxo-1-phenylethyl}carbamate] | < 1 nM | < 1 nM | < 1 nM | – | 0.008 nM | < 1 nM | < 1 nM | < 1 nM | – | – | – | – | – | – | – |
| CC[C@@H](C)C(NC(=O)OC)C(=O)N1C[C@@H](COC)C[C@H]1c1nc2ccc3cc4c(cc3c2[nH]1)OCc1cc(-c2cnc([C@@H]3C[C@H](C)CN3C(=O)[C@@H](NC(=O)OC)[C@H](C)CC)[nH]2)ccc1-4 (stereo partly drawn) [Example QE, Methyl {(3R)-1-[(2S,4S)-2-(9-{2-[(2S,4S)-1-{(2S,3R)-2-[(methoxycarbonyl)amino]-3-methylpentanoyl}-4-methylpyrrolidin-2-yl]-1H-imidazol-5-yl}-1,11-dihydroisochromeno[4′,3′:6,7]naphtho[1,2-d]imidazol-2-yl)-4-(methoxymethyl)pyrrolidin-1-yl]-3-methyl-1-oxopentan-2-yl}carbamate] | < 1 nM | – | < 1 nM | – | – | < 1 nM | < 1 nM | – | – | – | – | – | – | – | – |
